According to BindingDB's records for doi:10.1016/j.bmcl.2003.08.064 (Abbott Laboratories, 2003):

Assays:
[1] = target: T1, Tyrosine-protein phosphatase non-receptor type 2 (Homo sapiens, UniProt P17706); test: PTP1B and TCPTP Inhibition Assay; settings: pH 7.5; 22 °C
T1 sequence (P17706 whole entry): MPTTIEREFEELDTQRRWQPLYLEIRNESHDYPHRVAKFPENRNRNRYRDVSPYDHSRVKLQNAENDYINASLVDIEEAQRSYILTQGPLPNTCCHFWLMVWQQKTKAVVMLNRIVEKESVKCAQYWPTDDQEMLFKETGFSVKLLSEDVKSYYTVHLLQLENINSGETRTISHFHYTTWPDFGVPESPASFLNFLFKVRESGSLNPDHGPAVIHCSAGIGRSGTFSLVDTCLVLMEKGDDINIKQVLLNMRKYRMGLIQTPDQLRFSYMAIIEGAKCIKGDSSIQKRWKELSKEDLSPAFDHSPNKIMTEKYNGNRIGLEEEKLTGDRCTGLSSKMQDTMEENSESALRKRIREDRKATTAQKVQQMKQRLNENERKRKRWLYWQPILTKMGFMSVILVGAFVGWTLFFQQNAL
Procedure: (§1) For each concentration of test compound or DMSO control, the initial rates were used to fit the rectangular hyperbola of Michaelis-Menten by nonlinear regression analysis. The ratio of the apparent Km/Vmax vs inhibitor concentration was plotted, and the Ki was calculated by linear regression to be the negative X-intercept.

[2] = target: T2, Tyrosine-protein phosphatase non-receptor type 1 [1-298] (Homo sapiens, UniProt P18031); test: PTP1B and TCPTP Inhibition Assay; settings: pH 7.5; 22 °C
T2 construct: 1-298
T2 sequence (P18031 whole entry): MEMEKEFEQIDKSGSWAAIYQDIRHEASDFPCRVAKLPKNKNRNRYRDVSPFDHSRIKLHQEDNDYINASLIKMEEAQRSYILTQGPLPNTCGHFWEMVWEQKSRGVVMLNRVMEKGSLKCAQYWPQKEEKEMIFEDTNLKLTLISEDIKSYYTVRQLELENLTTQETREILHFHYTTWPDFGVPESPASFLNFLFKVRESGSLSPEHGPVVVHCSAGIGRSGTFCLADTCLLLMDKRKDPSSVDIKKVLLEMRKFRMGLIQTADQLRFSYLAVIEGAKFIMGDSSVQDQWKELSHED
Procedure: as §1

| Ki [1] | SMILES | Ki [2] |
| --- | --- | --- |
| 182 µM | COC(=O)c1c(O)cccc1OCCCCNC(=O)[C@H](Cc1ccc(OCC(=O)O)c(O)c1)NC(C)=O (racemic) [2-{4-[2-acetamido-2-({4-[3-hydroxy-2-(methoxycarbonyl)phenoxy]butyl}carbamoyl)ethyl]-2-hydroxyphenoxy}acetic acid] |  |
|  | COC(=O)c1c(O)cccc1OCCCCNC(=O)[C@H](Cc1ccc(C=CC(=O)O)cc1)NC(=O)OC(C)(C)C [(2Z)-3-{4-[(2S)-2-{[(tert-butoxy)carbonyl]amino}-2-({4-[3-hydroxy-2-(methoxycarbonyl)phenoxy]butyl}carbamoyl)ethyl]phenyl}prop-2-enoic acid] | > 200 µM |
| > 200 µM | COC(=O)c1c(O)cccc1OCCCCNC(=O)[C@H](Cc1ccc(OCC(=O)O)cc1)NC(=O)OC(C)(C)C |  |
| 65 µM | CCc1cc(CC(NC(C)=O)C(=O)NCCCCOc2cccc(O)c2C(=O)OC)ccc1N(C(=O)C(=O)O)c1ccccc1C(=O)O (centres undefined) |  |
